Measured values taken from ChEMBL document CHEMBL3044788, “α-(Substituted-phenoxyacetoxy)-α-heterocyclylmethylphosphonates: synthesis, herbicidal activity, inhibition on pyruvate dehydrogenase complex (PDHc), and application as postemergent herbicide against broadleaf weeds” (J Agric Food Chem, 2013).
pIC50: −log10 of the molar value.

Tests used:
[1] = test system: Polygonum aviculare; assay: Herbicidal activity against Polygonum aviculare assessed as relative growth inhibition at 100 g/ha in greenhouse by post-emergence herbicidal activity assay; format: functional; details: read-out: GI
[2] = Toxicity in orally dosed Rattus norvegicus (rat); format: organism-based; details: in vivo, po
[3] = test system: Amaranthus spinosus; assay: Herbicidal activity against Amaranthus spinosus assessed as relative growth inhibition at 100 g/ha in greenhouse by postemergence herbicidal activity assay; format: functional; details: post-emergence, read-out: GI
[4] = Inhibition of Oryza sativa (rice) PDHc by spectrophotometric assay
[5] = test system: Amaranthus spinosus; assay: Herbicidal activity against Amaranthus spinosus assessed as relative growth inhibition at 200 g/ha in greenhouse by postemergence herbicidal activity assay; format: functional; details: post-emergence, read-out: GI
[6] = test system: Beta vulgaris; assay: Herbicidal activity against Beta vulgaris assessed as relative growth inhibition at 450 g/ha in greenhouse by post-emergence herbicidal activity assay; format: functional; details: read-out: GI
[7] = test system: Polygonum aviculare; assay: Herbicidal activity against Polygonum aviculare assessed as relative growth inhibition at 50 g/ha in greenhouse by post-emergence herbicidal activity assay; format: functional; details: read-out: GI
[8] = test system: Chenopodium album; assay: Herbicidal activity against Chenopodium album assessed as relative growth inhibition at 50 g/ha in greenhouse by post-emergence herbicidal activity assay; format: functional; details: read-out: GI
[9] = test system: Amaranthus blitum; assay: Herbicidal activity against Amaranthus blitum assessed as relative growth inhibition at 1200 g/ha in greenhouse by post-emergence herbicidal activity assay; format: functional; details: read-out: GI
[10] = test system: Beta vulgaris; assay: Herbicidal activity against Beta vulgaris assessed as relative growth inhibition at 50 g/ha in greenhouse by post-emergence herbicidal activity assay; format: functional; details: read-out: GI
[11] = test system: Zea mays; assay: Herbicidal activity against Zea mays (maize) assessed as relative growth inhibition at 1200 g/ha in greenhouse by postemergence herbicidal activity assay; format: organism-based; details: in vivo, other
[12] = test system: Zea mays; assay: Herbicidal activity against Zea mays (maize) assessed as relative growth inhibition at 300 g/ha in greenhouse by postemergence herbicidal activity assay; format: organism-based; details: in vivo, other
[13] = test system: Amaranthus retroflexus; assay: Herbicidal activity against 2 to 3 leaf stage Amaranthus retroflexus assessed as inhibition of plant growth at 450 g/ha in greenhouse by postemergence herbicidal activity assay; format: functional; details: post-emergence, read-out: GI
[14] = test system: Polygonum aviculare; assay: Herbicidal activity against Polygonum aviculare assessed as relative growth inhibition at 1200 g/ha in greenhouse by post-emergence herbicidal activity assay; format: functional; details: read-out: GI
[15] = test system: Oryza sativa; assay: Herbicidal activity against Oryza sativa (rice) assessed as relative growth inhibition at 450 g/ha in greenhouse by postemergence herbicidal activity assay; format: organism-based; details: in vivo, other
[16] = test system: Amaranthus blitum; assay: Herbicidal activity against Amaranthus blitum assessed as relative growth inhibition at 50 g/ha in greenhouse by post-emergence herbicidal activity assay; format: functional; details: read-out: GI
[17] = test system: Brassica rapa subsp. oleifera; assay: Herbicidal activity against two to three-leaf stage Brassica rapa subsp. oleifera assessed as inhibition of plant growth at 150 g/ha in greenhouse by postemergence herbicidal activity assay; format: functional; details: post-emergence, read-out: GI
[18] = test system: Amaranthus blitum; assay: Herbicidal activity against Amaranthus blitum assessed as relative growth inhibition at 100 g/ha in greenhouse by post-emergence herbicidal activity assay; format: functional; details: read-out: GI
[19] = test system: Polygonum aviculare; assay: Herbicidal activity against Polygonum aviculare assessed as relative growth inhibition at 450 g/ha in greenhouse by post-emergence herbicidal activity assay; format: functional; details: read-out: GI
[20] = test system: Beta vulgaris; assay: Herbicidal activity against Beta vulgaris assessed as relative growth inhibition at 600 g/ha in greenhouse by post-emergence herbicidal activity assay; format: functional; details: read-out: GI
[21] = test system: Beta vulgaris; assay: Herbicidal activity against Beta vulgaris assessed as relative growth inhibition at 200 g/ha in greenhouse by post-emergence herbicidal activity assay; format: functional; details: read-out: GI
[22] = test system: Polygonum aviculare; assay: Herbicidal activity against Polygonum aviculare assessed as relative growth inhibition at 600 g/ha in greenhouse by post-emergence herbicidal activity assay; format: functional; details: read-out: GI
[23] = test system: Chenopodium album; assay: Herbicidal activity against Chenopodium album assessed as relative growth inhibition at 100 g/ha in greenhouse by post-emergence herbicidal activity assay; format: functional; details: read-out: GI
[24] = test system: Brassica rapa subsp. oleifera; assay: Herbicidal activity against Brassica rapa subsp. oleifera assessed as inhibition of rape root growth; format: functional, organism-based
[25] = test system: Chenopodium album; assay: Herbicidal activity against Chenopodium album assessed as relative growth inhibition at 1200 g/ha in greenhouse by post-emergence herbicidal activity assay; format: functional; details: read-out: GI
[26] = test system: Abutilon theophrasti; assay: Herbicidal activity against two to three-leaf stage Abutilon theophrasti (velvetleaf) assessed as inhibition of plant growth at 150 g/ha in greenhouse by post-emergence herbicidal activity assay; format: functional; details: read-out: GI
[27] = test system: Amaranthus spinosus; assay: Herbicidal activity against Amaranthus spinosus assessed as relative growth inhibition at 50 g/ha in greenhouse by postemergence herbicidal activity assay; format: functional; details: post-emergence, read-out: GI
[28] = test system: Chenopodium album; assay: Herbicidal activity against Chenopodium album assessed as relative growth inhibition at 450 g/ha in greenhouse by post-emergence herbicidal activity assay; format: functional; details: read-out: GI
[29] = test system: Zea mays; assay: Herbicidal activity against Zea mays (maize) assessed as relative growth inhibition at 450 g/ha in greenhouse by postemergence herbicidal activity assay; format: organism-based; details: in vivo, other
[30] = test system: Amaranthus blitum; assay: Herbicidal activity against Amaranthus blitum assessed as relative growth inhibition at 600 g/ha in greenhouse by post-emergence herbicidal activity assay; format: functional; details: read-out: GI
[31] = test system: Oryza sativa; assay: Herbicidal activity against Oryza sativa (rice) assessed as relative growth inhibition at 1200 g/ha in greenhouse by postemergence herbicidal activity assay; format: organism-based; details: in vivo, other
[32] = test system: Amaranthus spinosus; assay: Herbicidal activity against Amaranthus spinosus assessed as relative growth inhibition at 300 g/ha in greenhouse by postemergence herbicidal activity assay; format: functional; details: post-emergence, read-out: GI
[33] = biological target: T1, Pyruvate dehydrogenase complex (Pisum sativum, UniProt P52902+P52904); assay: Inhibition of Pisum sativum (pea) PDHc by spectrophotometric assay; format: protein-complex assay, Lathyrus oleraceus
T1 sequence (P52902 whole entry): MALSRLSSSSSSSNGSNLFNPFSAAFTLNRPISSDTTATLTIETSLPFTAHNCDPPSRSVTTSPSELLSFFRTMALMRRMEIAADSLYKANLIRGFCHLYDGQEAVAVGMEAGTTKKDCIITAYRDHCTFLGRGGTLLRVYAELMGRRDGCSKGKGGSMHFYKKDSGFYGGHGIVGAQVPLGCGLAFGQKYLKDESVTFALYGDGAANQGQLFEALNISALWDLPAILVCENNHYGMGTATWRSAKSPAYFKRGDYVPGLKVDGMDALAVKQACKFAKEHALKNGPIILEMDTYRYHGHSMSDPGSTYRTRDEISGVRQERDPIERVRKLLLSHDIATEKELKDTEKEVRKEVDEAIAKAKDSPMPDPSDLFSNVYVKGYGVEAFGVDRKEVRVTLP
T1 sequence (P52904 whole entry): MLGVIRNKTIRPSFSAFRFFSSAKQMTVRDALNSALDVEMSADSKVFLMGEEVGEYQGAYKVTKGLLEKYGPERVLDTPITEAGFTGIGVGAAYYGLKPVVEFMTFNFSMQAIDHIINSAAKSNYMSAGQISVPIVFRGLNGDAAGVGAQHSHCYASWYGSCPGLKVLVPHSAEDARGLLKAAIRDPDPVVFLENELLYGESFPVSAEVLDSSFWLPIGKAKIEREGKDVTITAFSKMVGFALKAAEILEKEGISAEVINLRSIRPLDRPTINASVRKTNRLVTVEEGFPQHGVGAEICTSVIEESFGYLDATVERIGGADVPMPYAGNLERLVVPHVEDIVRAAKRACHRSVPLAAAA

[34] = test system: Amaranthus spinosus; assay: Herbicidal activity against Amaranthus spinosus assessed as relative growth inhibition at 1200 g/ha in greenhouse by postemergence herbicidal activity assay; format: functional; details: post-emergence, read-out: GI
[35] = test system: Oryza sativa; assay: Herbicidal activity against two to three-leaf stage Oryza sativa (rice) assessed as inhibition of plant growth at 450 g/ha in greenhouse by postemergence herbicidal activity assay; format: organism-based; details: in vivo, other

SMILES: COP(=O)(OC)C(OC(=O)COc1ccc(Cl)cc1Cl)c1ccco1 (stereo not given)
- inhibition of growth at 100 g/ha [1]: 83%
- LD50 [2]: 2700 mg/kg
- inhibition of growth at 100 g/ha [3]: 90%
- pIC50 [4]: 3.15
- inhibition of growth at 200 g/ha [5]: 98%
- inhibition of growth at 450 g/ha [6]: 100%
- inhibition of growth at 50 g/ha [7]: 70%
- inhibition of growth at 50 g/ha [8]: 80%
- inhibition of growth at 1200 g/ha [9]: 100%
- inhibition of growth at 50 g/ha [10]: 80%
- growth inhibition (GI) [11]: 10%
- growth inhibition (GI) [12]: 0%
- inhibition of growth at 450 g/ha [13]: 100%
- inhibition of growth at 1200 g/ha [14]: 100%
- growth inhibition (GI) [15]: 0%
- inhibition of growth at 50 g/ha [16]: 100%
- inhibition of growth at 150 g/ha [17]: 95%
- inhibition of growth at 100 g/ha [18]: 100%
- inhibition of growth at 450 g/ha [19]: 100%
- inhibition of growth at 600 g/ha [20]: 100%
- inhibition of growth at 200 g/ha [21]: 98%
- inhibition of growth at 600 g/ha [22]: 100%
- inhibition of growth at 100 g/ha [23]: 90%
- pIC50 [24]: 7.38
- inhibition of growth at 1200 g/ha [25]: 100%
- inhibition of growth at 150 g/ha [26]: 95%
- inhibition of growth at 50 g/ha [27]: 60%
- inhibition of growth at 450 g/ha [28]: 100%
- growth inhibition (GI) [29]: 0%
- inhibition of growth at 600 g/ha [30]: 100%
- growth inhibition (GI) [31]: 20%
- inhibition of growth at 300 g/ha [32]: 98%
- pIC50 [33]: 4.55
- inhibition of growth at 1200 g/ha [34]: 100%
- growth inhibition (GI) [35]: 10%
